Test system: MV-4-11 cells
Assay: Gene expression microarray analysis (Affymetrix PrimeView) and GSEA
Format: cell-based, human
Parameters: RFU PODN (11730768_x_at) / Fold change /veh PODN (11730768_x_at) / RFU LINC00158 (11744669_a_at) / Fold change /veh LINC00158 (11744669_a_at) / RFU DUSP10 (11751237_a_at) / Fold change /veh DUSP10 (11751237_a_at) / RFU ID3 (11757404_x_at) / Fold change /veh ID3 (11757404_x_at) / RFU PLEKHG5 (11737974_s_at) / Fold change /veh PLEKHG5 (11737974_s_at) / RFU LRRC4B (11730491_at) / Fold change /veh LRRC4B (11730491_at) / RFU GIMAP4 (11747438_a_at) / Fold change /veh GIMAP4 (11747438_a_at) / RFU KRT8 (11758183_x_at) / Fold change /veh KRT8 (11758183_x_at) / RFU CNN1 (11734310_a_at) / Fold change /veh CNN1 (11734310_a_at) / RFU VPS37D (11726825_at) / Fold change /veh VPS37D (11726825_at) / RFU C10orf10 (11716522_x_at) / Fold change /veh C10orf10 (11716522_x_at) / RFU KIR2DL2 /// KIR2DL4 /// KIR2DL5A /// KIR2DL5B /// KIR2DS1 /// KIR2DS2 /// KIR2DS3 /// KIR2DS4 /// KIR3DL3 /// KIR3DL3 /// KIR3DS1 (11738374_at) / Fold change /veh KIR2DL2 /// KIR2DL4 /// KIR2DL5A /// KIR2DL5B /// KIR2DS1 /// KIR2DS2 /// KIR2DS3 /// KIR2DS4 /// KIR3DL3 /// KIR3DL3 /// KIR3DS1 (11738374_at) / RFU C1QL1 (11718748_at) / Fold change /veh C1QL1 (11718748_at) / RFU TMPRSS4 (11747572_a_at) / Fold change /veh TMPRSS4 (11747572_a_at) / RFU HAMP (11756126_x_at) / Fold change /veh HAMP (11756126_x_at) / RFU RNFT2 (11725882_a_at) / Fold change /veh RNFT2 (11725882_a_at) / RFU NR4A2 (11747474_a_at) / Fold change /veh NR4A2 (11747474_a_at) / RFU ABCC12 (11746883_a_at) / Fold change /veh ABCC12 (11746883_a_at) / RFU TMEM136 (11760407_x_at) / Fold change /veh TMEM136 (11760407_x_at) / RFU CLDN22 /// WWC2 (11732394_at) / Fold change /veh CLDN22 /// WWC2 (11732394_at) / RFU HLA-DPB1 (11760878_x_at) / Fold change /veh HLA-DPB1 (11760878_x_at) / RFU SPINT1 (11716480_a_at) / Fold change /veh SPINT1 (11716480_a_at) / RFU GAP43 (11754022_s_at) / Fold change /veh GAP43 (11754022_s_at) / RFU A4GNT (11735810_at) / Fold change /veh A4GNT (11735810_at) / RFU PRB3 (11715151_x_at) / Fold change /veh PRB3 (11715151_x_at) / RFU TUBB4B (11761932_at) / Fold change /veh TUBB4B (11761932_at) / RFU CAPN14 (11732068_a_at) / Fold change /veh CAPN14 (11732068_a_at) / RFU TMCC2 (11721928_a_at) / Fold change /veh TMCC2 (11721928_a_at) / RFU IRGQ (11745062_a_at) / Fold change /veh IRGQ (11745062_a_at) / RFU FAM174B (11720279_a_at) / Fold change /veh FAM174B (11720279_a_at) / RFU TMPRSS4 (11748680_a_at) / Fold change /veh TMPRSS4 (11748680_a_at) / RFU FAM212B (11763350_a_at) / Fold change /veh FAM212B (11763350_a_at) / RFU PLEKHG5 (11743358_a_at) / Fold change /veh PLEKHG5 (11743358_a_at) / RFU ZSCAN30 (11745921_a_at) / Fold change /veh ZSCAN30 (11745921_a_at) / RFU CMKLR1 (11741424_a_at) / Fold change /veh CMKLR1 (11741424_a_at) / RFU LOC101060620 /// MAPK8IP1 (11723275_at) / Fold change /veh LOC101060620 /// MAPK8IP1 (11723275_at) / RFU SPTSSB (11747773_x_at) / Fold change /veh SPTSSB (11747773_x_at) / RFU PRSS12 (11739890_at) / Fold change /veh PRSS12 (11739890_at) / RFU BIN1 (11741810_x_at) / Fold change /veh BIN1 (11741810_x_at) / RFU WNT11 (11732464_a_at) / Fold change /veh WNT11 (11732464_a_at) / RFU C10orf10 (11716521_a_at) / Fold change /veh C10orf10 (11716521_a_at) / RFU C5orf56 (11738089_at) / Fold change /veh C5orf56 (11738089_at) / RFU CYB561 (11721691_x_at) / Fold change /veh CYB561 (11721691_x_at) / RFU ANKRD19P (11752326_a_at) / Fold change /veh ANKRD19P (11752326_a_at) / RFU OR2T12 /// OR2T33 /// OR2T8 (11738714_s_at) / Fold change /veh OR2T12 /// OR2T33 /// OR2T8 (11738714_s_at) / RFU VCAN (11748164_a_at) / Fold change /veh VCAN (11748164_a_at) / RFU JSRP1 (11732532_at) / Fold change /veh JSRP1 (11732532_at) / RFU KRTAP10-11 (11738290_x_at) / Fold change /veh KRTAP10-11 (11738290_x_at) / RFU MYO3A (11730013_a_at) / Fold change /veh MYO3A (11730013_a_at) / RFU EBF3 (11725865_a_at) / Fold change /veh EBF3 (11725865_a_at) / RFU CAMK2N1 (11719241_x_at) / Fold change /veh CAMK2N1 (11719241_x_at) / RFU C5orf56 (11738088_a_at) / Fold change /veh C5orf56 (11738088_a_at) / RFU OLFML3 (11715873_a_at) / Fold change /veh OLFML3 (11715873_a_at) / RFU LOC100653217 /// NTM (11731650_a_at) / Fold change /veh LOC100653217 /// NTM (11731650_a_at) / RFU MAPK11 (11762145_a_at) / Fold change /veh MAPK11 (11762145_a_at) / RFU FIZ1 (11724087_x_at) / Fold change /veh FIZ1 (11724087_x_at) / RFU OASL (11726364_x_at) / Fold change /veh OASL (11726364_x_at) / RFU SOX15 (11748057_x_at) / Fold change /veh SOX15 (11748057_x_at) / RFU CD79A (11719716_a_at) / Fold change /veh CD79A (11719716_a_at) / RFU HIST1H1D (11736915_at) / Fold change /veh HIST1H1D (11736915_at) / RFU CASKIN2 (11723855_a_at) / Fold change /veh CASKIN2 (11723855_a_at) / RFU LOC730098 (11760151_x_at) / Fold change /veh LOC730098 (11760151_x_at) / RFU OR4N2 (11742367_at) / Fold change /veh OR4N2 (11742367_at) / RFU PRRT2 (11749266_a_at) / Fold change /veh PRRT2 (11749266_a_at) / RFU SNX32 (11753110_a_at) / Fold change /veh SNX32 (11753110_a_at) / RFU CDHR5 (11726645_a_at) / Fold change /veh CDHR5 (11726645_a_at) / RFU RCAN1 (11760418_a_at) / Fold change /veh RCAN1 (11760418_a_at) / RFU FAM167A (11723789_a_at) / Fold change /veh FAM167A (11723789_a_at) / RFU FAM26E (11764081_at) / Fold change /veh FAM26E (11764081_at) / RFU ISYNA1 (11749810_s_at) / Fold change /veh ISYNA1 (11749810_s_at) / RFU ACY1 (11761880_at) / Fold change /veh ACY1 (11761880_at) / RFU 11764098_at / Fold change /veh 11764098_at / RFU SAMD14 (11745864_x_at) / Fold change /veh SAMD14 (11745864_x_at) / RFU NPB (11741838_a_at) / Fold change /veh NPB (11741838_a_at) / RFU TMPRSS6 (11731388_a_at) / Fold change /veh TMPRSS6 (11731388_a_at) / RFU KRTAP10-2 (11738614_at) / Fold change /veh KRTAP10-2 (11738614_at) / RFU ARHGAP8 /// PRR5-ARHGAP8 (11727945_x_at) / Fold change /veh ARHGAP8 /// PRR5-ARHGAP8 (11727945_x_at) / RFU KRTAP5-7 /// NADSYN1 (11734609_at) / Fold change /veh KRTAP5-7 /// NADSYN1 (11734609_at) / RFU RASL12 (11751679_a_at) / Fold change /veh RASL12 (11751679_a_at) / RFU CDKN2B (11736163_a_at) / Fold change /veh CDKN2B (11736163_a_at) / RFU PRF1 (11729649_at) / Fold change /veh PRF1 (11729649_at) / RFU, ZNF638 /// ZNF638-IT1 / Fold change vs veh, ZNF638 /// ZNF638-IT1 / RFU, PANK3 / Fold change vs veh, PANK3 / RFU, SH3YL1 / Fold change vs veh, SH3YL1 / RFU, ZEB2 / Fold change vs veh, ZEB2 / RFU, NRIP1 / Fold change vs veh, NRIP1 / RFU, PTTG1IP / Fold change vs veh, PTTG1IP / RFU, CAPN2 / Fold change vs veh, CAPN2 / RFU, MED14 / Fold change vs veh, MED14 / RFU, SNORA58 / Fold change vs veh, SNORA58 / RFU, C1orf63 / Fold change vs veh, C1orf63 / RFU, LRRFIP1 / Fold change vs veh, LRRFIP1 / RFU, NDUFAF7 / Fold change vs veh, NDUFAF7 / RFU, SLC12A2 / Fold change vs veh, SLC12A2 / RFU, IBTK / Fold change vs veh, IBTK / RFU, ESF1 / Fold change vs veh, ESF1 / Fold change vs veh, TMEM50B / RFU, TAOK1 / Fold change vs veh, TAOK1 / RFU, ACBD3 / Fold change vs veh, ACBD3 / RFU, TMA16 / Fold change vs veh, TMA16 / RFU, RWDD3 / Fold change vs veh, RWDD3 / RFU, BCAT1 / Fold change vs veh, BCAT1 / RFU, EDEM3 / Fold change vs veh, EDEM3 / RFU, TMEM33 / Fold change vs veh, TMEM33 / RFU, WDR75 / Fold change vs veh, WDR75 / RFU, AHCTF1 / Fold change vs veh, AHCTF1 / RFU, TFRC / Fold change vs veh, TFRC / RFU, ZDHHC17 / Fold change vs veh, ZDHHC17 / RFU, NOM1 / Fold change vs veh, NOM1 / RFU, ARL8B / Fold change vs veh, ARL8B / RFU, ZBTB11 / Fold change vs veh, ZBTB11 / RFU, TAMM41 / Fold change vs veh, TAMM41 / RFU, KIAA1704 /// LOC100996395 / Fold change vs veh, KIAA1704 /// LOC100996395 / RFU, ING1 / Fold change vs veh, ING1 / RFU, TRMT61B / Fold change vs veh, TRMT61B / RFU, FUBP3 / Fold change vs veh, FUBP3 / RFU, TP53 / Fold change vs veh, TP53 / RFU, TNKS2 / Fold change vs veh, TNKS2 / RFU, ZFP14 / Fold change vs veh, ZFP14 / RFU, ACTR2 / Fold change vs veh, ACTR2 / RFU, PPP3R1 / Fold change vs veh, PPP3R1 / RFU, PIK3R1 / Fold change vs veh, PIK3R1 / RFU, HNRNPA1 / Fold change vs veh, HNRNPA1 / RFU, RNF170 / Fold change vs veh, RNF170 / RFU, ZNF28 / Fold change vs veh, ZNF28 / RFU, RNGTT / Fold change vs veh, RNGTT / RFU, OGT / Fold change vs veh, OGT / RFU, BRD1 / Fold change vs veh, BRD1 / RFU, MARS / Fold change vs veh, MARS / RFU, ZNF655 / Fold change vs veh, ZNF655 / RFU, FAHD1 / Fold change vs veh, FAHD1 / RFU, BDP1 / Fold change vs veh, BDP1 / RFU, LRRCC1 / Fold change vs veh, LRRCC1 / RFU, ARID1A / Fold change vs veh, ARID1A / RFU, ZNF146 / Fold change vs veh, ZNF146 / RFU, ZNF330 / Fold change vs veh, ZNF330 / RFU, GPN3 / Fold change vs veh, GPN3 / RFU, C9orf123 / Fold change vs veh, C9orf123 / RFU, N4BP2L2 / Fold change vs veh, N4BP2L2 / RFU, ARFIP1 / Fold change vs veh, ARFIP1 / RFU, FAM179B / Fold change vs veh, FAM179B / RFU, BCL10 / Fold change vs veh, BCL10 / RFU, UHRF1BP1L / Fold change vs veh, UHRF1BP1L / RFU, BET1 / Fold change vs veh, BET1 / RFU, CNOT2 / Fold change vs veh, CNOT2 / RFU, ZNF268 / Fold change vs veh, ZNF268 / Fold change vs veh, ZNF507 / RFU, DGCR2 / Fold change vs veh, DGCR2 / RFU, WDSUB1 / Fold change vs veh, WDSUB1 / Fold change vs veh, HSP90B1 /// MIR3652 / RFU, ADSS / Fold change vs veh, ADSS / RFU, GK / Fold change vs veh, GK / RFU, ZNF148 / Fold change vs veh, ZNF148 / RFU, TAF9 / Fold change vs veh, TAF9 / RFU, SLC1A5 / Fold change vs veh, SLC1A5 / RFU, SLMO2 / Fold change vs veh, SLMO2 / RFU, ABCC4 / Fold change vs veh, ABCC4 / RFU, LOC101060439 /// RAP1B / Fold change vs veh, LOC101060439 /// RAP1B / RFU, RFX7 / Fold change vs veh, RFX7 / RFU, GTPBP10 / Fold change vs veh, GTPBP10 / RFU, CNEP1R1 / Fold change vs veh, CNEP1R1 / RFU, BIVM-ERCC5 /// ERCC5 / Fold change vs veh, BIVM-ERCC5 /// ERCC5 / RFU, ILF3 / Fold change vs veh, ILF3 / RFU 11762660_at / Fold change /veh 11762660_at / RFU VCAN (11757783_s_at) / Fold change /veh VCAN (11757783_s_at) / RFU DDX43 (11728927_at) / Fold change /veh DDX43 (11728927_at) / RFU KRT8 (11758188_x_at) / Fold change /veh KRT8 (11758188_x_at) / RFU NKD1 (11759106_at) / Fold change /veh NKD1 (11759106_at) / RFU SRD5A1 (11742802_a_at) / Fold change /veh SRD5A1 (11742802_a_at) / RFU TPSAB1 /// TPSB2 (11721975_s_at) / Fold change /veh TPSAB1 /// TPSB2 (11721975_s_at) / RFU GSTM3 (11746129_a_at) / Fold change /veh GSTM3 (11746129_a_at) / RFU IL23R (11737362_x_at) / Fold change /veh IL23R (11737362_x_at) / RFU TMEM51 (11727254_a_at) / Fold change /veh TMEM51 (11727254_a_at) / RFU PIWIL2 (11732686_x_at) / Fold change /veh PIWIL2 (11732686_x_at) / RFU ORM1 (11744905_x_at) / Fold change /veh ORM1 (11744905_x_at) / RFU CCDC152 (11743942_at) / Fold change /veh CCDC152 (11743942_at) / RFU ECM1 (11717891_a_at) / Fold change /veh ECM1 (11717891_a_at) / RFU IL23R (11748794_a_at) / Fold change /veh IL23R (11748794_a_at) / RFU TNFAIP8L3 (11732012_x_at) / Fold change /veh TNFAIP8L3 (11732012_x_at) / RFU MBOAT4 (11741988_at) / Fold change /veh MBOAT4 (11741988_at) / RFU 11764193_at / Fold change /veh 11764193_at / RFU TMEM53 (11763286_at) / Fold change /veh TMEM53 (11763286_at) / RFU MAGEB2 (11727129_at) / Fold change /veh MAGEB2 (11727129_at) / RFU TMEM200A (11744735_a_at) / Fold change /veh TMEM200A (11744735_a_at) / RFU CCDC152 (11751479_a_at) / Fold change /veh CCDC152 (11751479_a_at) / RFU FAM211A (11726209_a_at) / Fold change /veh FAM211A (11726209_a_at) / RFU RGS16 (11746705_a_at) / Fold change /veh RGS16 (11746705_a_at) / RFU VCAN (11755009_s_at) / Fold change /veh VCAN (11755009_s_at) / RFU RHOB (11743442_s_at) / Fold change /veh RHOB (11743442_s_at) / RFU RGS16 (11720943_a_at) / Fold change /veh RGS16 (11720943_a_at) / RFU RGS16 (11720944_at) / Fold change /veh RGS16 (11720944_at) / RFU, VPS4B / Fold change vs veh, VPS4B / RFU, CREB1 / Fold change vs veh, CREB1 / RFU, DNAJC13 / Fold change vs veh, DNAJC13 / RFU, GNAQ / Fold change vs veh, GNAQ / RFU, CDK5R1 / Fold change vs veh, CDK5R1 / RFU, ZRANB3 / Fold change vs veh, ZRANB3 / RFU, CUL4A / Fold change vs veh, CUL4A / RFU, CCNY / Fold change vs veh, CCNY / RFU, UFL1 / Fold change vs veh, UFL1 / RFU, COG3 / Fold change vs veh, COG3 / RFU, DIAPH2 / Fold change vs veh, DIAPH2 / RFU, SKA2 / Fold change vs veh, SKA2 / RFU, AFF3 / Fold change vs veh, AFF3 / RFU, LMF1 / Fold change vs veh, LMF1 / RFU, IPO11 / Fold change vs veh, IPO11 / RFU, DFFB / Fold change vs veh, DFFB / RFU, FOXP1 / Fold change vs veh, FOXP1 / RFU, CARD8 / Fold change vs veh, CARD8 / RFU, STRN3 / Fold change vs veh, STRN3 / RFU, ADK / Fold change vs veh, ADK / RFU, RASSF2 / Fold change vs veh, RASSF2 / RFU, WIPF1 / Fold change vs veh, WIPF1 / RFU, LARP1B / Fold change vs veh, LARP1B / RFU, RASA1 / Fold change vs veh, RASA1 / RFU, RB1 / Fold change vs veh, RB1 / RFU, PPFIA1 / Fold change vs veh, PPFIA1 / RFU, MAT2A / Fold change vs veh, MAT2A / RFU, CCT5 / Fold change vs veh, CCT5 / RFU, WDR92 / Fold change vs veh, WDR92 / RFU, CUX1 / Fold change vs veh, CUX1 / RFU, TTC7A / Fold change vs veh, TTC7A / RFU, TMEM135 / Fold change vs veh, TMEM135 / RFU, DEPTOR / Fold change vs veh, DEPTOR / RFU, CPM / Fold change vs veh, CPM / RFU, DNAJB6 / Fold change vs veh, DNAJB6 / RFU, CACNA2D3 / Fold change vs veh, CACNA2D3 / RFU, DTX4 / Fold change vs veh, DTX4 / RFU, TFCP2 / Fold change vs veh, TFCP2 / RFU, GMCL1 /// GMCL1P1 / Fold change vs veh, GMCL1 /// GMCL1P1 / RFU, AEBP2 / Fold change vs veh, AEBP2 / RFU, SNHG1 /// SNORD22 /// SNORD25 /// SNORD26 /// SNORD27 /// SNORD28 /// SNORD29 /// SNORD31 / Fold change vs veh, SNHG1 /// SNORD22 /// SNORD25 /// SNORD26 /// SNORD27 /// SNORD28 /// SNORD29 /// SNORD31 / Fold change (Aza/veh), C12orf56 (ProbeSet 11735607_a_at) / Fold change (ACY-1035/veh), C12orf56 (ProbeSet 11735607_a_at) / Fold change (Aza/veh), FGFR1OP (ProbeSet 11751329_s_at) / Fold change (ACY-1035/veh), FGFR1OP (ProbeSet 11751329_s_at) / Fold change (Aza/veh), VPS36 (ProbeSet 11739960_a_at) / Fold change (ACY-1035/veh), VPS36 (ProbeSet 11739960_a_at) / RFU SYPL1 (11715823_x_at) / Fold change /veh SYPL1 (11715823_x_at) / RFU IGFBP7 (11715501_s_at) / Fold change /veh IGFBP7 (11715501_s_at) / RFU REEP3 (11722064_at) / Fold change /veh REEP3 (11722064_at) / RFU IGLL1 (11728026_x_at) / Fold change /veh IGLL1 (11728026_x_at): dose or concentration left out as unconfirmed
Conditions: ProbeSet 11743882_a_at; LIST D

Nc1ncn([C@@H]2O[C@H](CO)[C@@H](O)[C@H]2O)c(=O)n1 [azacitidine]
RFU, STRN3: 92.89 RFU

— paper PMC5218480 (PLoS ONE, 2017)
